According to paper PMC6396489 (Cell Communication and Signaling : CCS, 2019):
“Also recorded” adds a separate entry of the source.

Columns and labels:
Shp1 = biological target: T1, Shp1 (Homo sapiens, UniProt P29350); experiment: Isothermal titration calorimetry, Shp1 WT; type: binding; conditions: Ins4P 50 µM (Fig. S2)
T1 construct: the C-terminal truncated form of human Shp1 cDNA (His-Shp1; amino acids 1–529); made in house; host or cells: E. coli BL21(DE3)
T1 sequence (P29350 1-529 isoform P29350-3): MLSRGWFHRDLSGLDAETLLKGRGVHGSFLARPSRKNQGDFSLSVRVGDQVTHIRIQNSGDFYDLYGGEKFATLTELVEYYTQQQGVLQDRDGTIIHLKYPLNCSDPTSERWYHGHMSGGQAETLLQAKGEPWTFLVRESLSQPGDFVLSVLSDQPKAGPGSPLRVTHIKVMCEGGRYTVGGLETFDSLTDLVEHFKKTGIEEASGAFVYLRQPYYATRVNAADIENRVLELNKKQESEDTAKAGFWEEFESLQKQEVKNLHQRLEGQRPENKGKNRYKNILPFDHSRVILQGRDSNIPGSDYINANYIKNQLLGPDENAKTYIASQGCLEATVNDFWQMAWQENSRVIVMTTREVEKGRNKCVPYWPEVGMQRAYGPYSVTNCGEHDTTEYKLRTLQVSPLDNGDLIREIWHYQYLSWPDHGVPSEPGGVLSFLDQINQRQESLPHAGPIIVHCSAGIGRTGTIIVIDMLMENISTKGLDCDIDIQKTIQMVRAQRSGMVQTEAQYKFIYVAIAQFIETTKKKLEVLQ
Protocol: ITC measurements were performed by using a Nano-ITC III (TA instruments, New Castle, DE, USA) with a reaction cell volume of 1 ml kept at 25 °C. A protein solution of 10 μM was titrated into the calorimetric cell with a solution of 50–100 μM of the ligand GroPIns4P (Ins4P) in the syringe. A sequence of 16 injections of 15 μL volume was programmed with a stirring speed of 250 rpm at 500 s intervals. Protein samples were prepared with protein solutions at 25 °C in 20 mM Tris buffer pH 7.4 with 50 mM NaCl and 1 mM TCEP. To minimise the differences in buffer composition and pH between cell and syringe, both ligand and protein solutions were prepared with the same batch of buffer. The heat of dilution of the GroPIns4P into the buffer solution was measured in a separate experiment and appropriate corrections were made. The heat evolved after each ligand injection was obtained from the integral of the calorimetric signal. Raw data were integrated, corrected for non-specific heats and normalized for concentration. The equilibrium dissociation constant (KD), binding enthalpy (ΔbH) and binding stoichiometry (n) were obtained by nonlinear regression of the experimental data using a model of independent binding sites, by means of the NanoAnalyze software. Experiments were performed in duplicate.

actin cytoskeleton = tested on: actin cytoskeleton; parameters: method as in PMID 12589050; conditions: cited from earlier work
NIH3T3 cells [1] = experiment: Immunofluorescence analysis for membrane ruffling; type: cell-based; conditions: for effect of pre-treatment on peripheral ruffles in response to GroPIns4P: with 50 μM GroPIns4P for 5 min
Protocol: NIH3T3 and Raw 264.7 cells were cultured in DMEM supplemented with 2 mM L-glutamine, 50 U/mL penicillin, […] streptomycin, and 10% CS or heat-inactivated FBS (30 min at 55 °C), respectively. NIH3T3 cells were transfected with different plasmids using the Lipofectamine LTX/plus reagent according to the manufacturer’s instructions. For immunofluorescence experiments, NIH3T3 cells were seeded onto glass coverslips in 24-well plates at a concentration suitable for 70% confluence without transfection or 50% confluence in the case of Lipofectamine-based cell transfection. In the latter, approximately 24 h after seeding, NIH3T3 cells were transiently transfected with different plasmids with the Lipofectamine LTX/plus reagent following the manufacturer’s instructions. Before treatments, NIH3T3 cells were serum-starved in DMEM with 2 mM glutamine, 50 U/mL penicillin and streptomycin for 16–20 h. The cells were then treated with different stimuli and/or inhibitors, as indicated in the text and/or Figure legends. Addition of exogenous GroPIns4P was at 50 μM (unless otherwise indicated), a concentration eliciting an intracellular concentration of about 1.5 μM, as calculated from the Nernst equation (with T = 300 K, z = − 3, and Veq = − 30 mV, an average value for cultured, non-excitable cells).
For ruffle assessment after treatments, immunofluorescence labelling and morphological analysis of the cells were performed as previously described in a double-blind fashion. In brief, the assessment was based on a null score (zero) for the absence of the feature, followed by a score of one or two according to the level of response of each individual cell, where one indicate that ruffling was confined to one area of the cell (< 25% of the cell circumference), and two indicate that two or more discrete areas of the cell contained ruffles. The cell phenotypes were quantified by counting 150 cells in each sample. The data were then expressed as percentage scores (±SD) for each treatment response compared with its respective control. Scoring of the control cells was performed in the same way to evaluate the presence of the features of interest in untreated cells.

NIH3T3 cells [2] = experiment: Wound-healing assay; type: cell-based; conditions: for effect on GroPIns4P-stimulated wound closure: 50 μM GroPIns4P
Protocol: To perform the wound-healing assay, NIH3T3 cells were seeded in 6-well tissue culture plates to a final density of 3 × 10^5 cells/well and maintained at 37 °C and 5% CO2 for 24 h until confluence before being starved overnight in DMEM containing 1% bovine serum. The cell monolayer was wounded by scratching with a 10 μL standard sterile pipette tip. The scratched monolayer was rinsed twice with DMEM containing 1% bovine serum to remove cell debris and incubated with or without 50 μM GroPIns4P. […] In detail, the input image was processed by applying a Sobel edge detector [26], obtaining a gradient image. A threshold process was then performed on the gradient image to obtain the foreground corresponding to the wound area. Particularly, all of the pixels of the gradient image with values less than the threshold θ were assumed to be pixels of the foreground (experimentally, θ is set to 4). Finally, procedures based on morphological operations were used to remove small regions and to fill holes of the wound area to complete detection and analysis.

## O=P(O)(O)OC1[C@@H](O)[C@@H](O)C(O)[C@H](O)[C@H]1O (stereo partly shown) [Ins4P, Inositol 4-phosphate, reference compound]
Shp1
  binding to Shp1 by ITC: did not indicate any specific binding; also recorded: no binding was resolved
Actin cytoskeleton
  effect on actin cytoskeleton organisation: no effect

## O=S(=O)(O)c1ccc2cc(N=Nc3cc(S(=O)(=O)O)c4cccnc4c3O)ccc2c1 [NSC-87877]
NIH3T3 cells [1]
  effect of pre-treatment on peripheral ruffles in response to GroPIns4P: strongly impair
NIH3T3 cells [2]; 100 μM, EGF 10 ng/ml
  reduction of EGF-induced cell migration: ~100%
NIH3T3 cells [2]; pre-treatment 100 μM
  effect on GroPIns4P-stimulated wound closure: completely abrogated

## O=C1C=CC(=O)C(c2cc(Cl)ccc2Cl)=C1 [TPI-1]
NIH3T3 cells [1]
  effect of pre-treatment on peripheral ruffles in response to GroPIns4P: strongly impair
NIH3T3 cells [2]; 25 μM, EGF 10 ng/ml
  reduction of EGF-induced cell migration: 50%
NIH3T3 cells [2]; pre-treatment 25 μM
  effect on GroPIns4P-stimulated wound closure: completely abrogated

## CCCCC/C=C\C/C=C\C/C=C\C/C=C\CCCC(=O)O [arachidonic acid]
NIH3T3 cells [2]; 10–50 μM
  effect on EGF-induced cell motility: did not affect
NIH3T3 cells [2]; EGF 10 ng/ml, cPLA2α inhibitor, arachidonic acid
  effect when combined with the PLA2 inhibitor in EGF-stimulated cells: minor inhibitory effect

## EGF: Epidermal growth factor
NIH3T3 cells [2]; 10 ng/ml EGF
  cell migration: significant increase

## PDGF
NIH3T3 cells [1]; 10 ng/ml PDGF
  effect of Shp1-C455S overexpression on PDGF-induced ruffles: not affected
NIH3T3 cells [1]; 10 ng/ml PDGF for 5 min, positive control
  increase in ruffles versus the control: 3.5–4 fold
